# In publication PMC8400343, “Synthesis and Evaluation of the Antidepressant-like Properties of HBK-10, a Novel 2-Methoxyphenylpiperazine Derivative Targeting the 5-HT1A and D2 Receptors” (Pharmaceuticals, 2021):
# Read-outs that look alike come from different tables or passages of the source.
# Key:
# human 5-HT6 receptor = target: T1, human 5-HT6 receptor (Homo sapiens, UniProt P50406); assay: Radioligand binding, [3H]-LSD, CHO-K1 membranes; conditions: CHO-K1 cells, mean ± SEM, read-out: Serotonergic pKi 5-HT6 (converted)
# T1 construct: expressed in transfected cells; host or cells: CHO-K1 (membranes)
# T1 sequence (P50406 whole entry): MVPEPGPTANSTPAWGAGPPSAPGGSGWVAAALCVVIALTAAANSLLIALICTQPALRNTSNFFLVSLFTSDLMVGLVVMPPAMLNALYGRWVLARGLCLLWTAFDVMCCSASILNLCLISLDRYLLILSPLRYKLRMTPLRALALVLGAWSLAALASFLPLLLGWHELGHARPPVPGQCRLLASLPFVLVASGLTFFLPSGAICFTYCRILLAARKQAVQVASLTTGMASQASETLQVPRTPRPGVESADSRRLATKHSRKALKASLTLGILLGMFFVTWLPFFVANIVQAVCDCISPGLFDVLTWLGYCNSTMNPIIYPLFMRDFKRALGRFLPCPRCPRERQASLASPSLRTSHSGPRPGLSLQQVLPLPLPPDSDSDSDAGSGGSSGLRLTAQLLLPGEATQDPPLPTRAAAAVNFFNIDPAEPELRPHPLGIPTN
# Procedure: Radioligand binding was performed on membranes from CHO-K1 cells stably transfected with the human 5-HT1A, 5-HT2A, 5-HT6, or 5-HT7 receptors. […] Binding experiments were conducted in 96-well microplates, and the reaction mix included the solution of the test compound, radioligand, and diluted membranes or the tissue suspension.
# (§1) The reaction was terminated by rapid filtration through GF/B or GF/C filter mate presoaked with 0.3% polyethyleneimine for 30 min. Ten rapid washes with 200 µl 50 mM Tris buffer (4 °C, pH 7.4) were performed using an automated harvester system Harvester-96 MACH III FM (Tomtec). […] Radioactivity was counted in the MicroBeta2 scintillation counter (PerkinElmer) at approximately 30% efficiency. […] A single assay was performed with each compound concentrations in duplicate, and the whole assay was repeated in a three independent experiments.
# dopaminergic D2 receptor = dopaminergic D2 receptor (Homo sapiens, UniProt P14416); assay: Radioligand binding, [3H]-methylspiperon, CHO-K1 cells; conditions: mean ± SEM, read-out: Dopaminergic pKi D2 (converted)
# dopaminergic D2 receptor, sequence (P14416 whole entry): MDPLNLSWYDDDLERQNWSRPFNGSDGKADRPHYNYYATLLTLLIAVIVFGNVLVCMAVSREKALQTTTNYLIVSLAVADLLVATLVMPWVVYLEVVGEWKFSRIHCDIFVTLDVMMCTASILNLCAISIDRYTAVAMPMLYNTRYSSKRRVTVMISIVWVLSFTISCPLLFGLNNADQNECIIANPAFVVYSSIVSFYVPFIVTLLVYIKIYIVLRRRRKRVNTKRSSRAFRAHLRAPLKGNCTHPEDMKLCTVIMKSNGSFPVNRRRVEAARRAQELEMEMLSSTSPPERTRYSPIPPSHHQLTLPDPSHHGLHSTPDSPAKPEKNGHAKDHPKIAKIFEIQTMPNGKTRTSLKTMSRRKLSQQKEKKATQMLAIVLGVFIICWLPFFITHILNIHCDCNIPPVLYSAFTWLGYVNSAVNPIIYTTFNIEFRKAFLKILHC
# Procedure: as §1
# [1] = target: T2, human serotonin 5-HT1A receptor (Homo sapiens, UniProt P08908); assay: Functional assay, inhibition of cAMP production, CHO-K1 cells; type: cell-based
# T2 construct: expressed in transfected cells; host or cells: CHO-K1 (cryopreserved, whole cells)
# T2 sequence (P08908 1-422): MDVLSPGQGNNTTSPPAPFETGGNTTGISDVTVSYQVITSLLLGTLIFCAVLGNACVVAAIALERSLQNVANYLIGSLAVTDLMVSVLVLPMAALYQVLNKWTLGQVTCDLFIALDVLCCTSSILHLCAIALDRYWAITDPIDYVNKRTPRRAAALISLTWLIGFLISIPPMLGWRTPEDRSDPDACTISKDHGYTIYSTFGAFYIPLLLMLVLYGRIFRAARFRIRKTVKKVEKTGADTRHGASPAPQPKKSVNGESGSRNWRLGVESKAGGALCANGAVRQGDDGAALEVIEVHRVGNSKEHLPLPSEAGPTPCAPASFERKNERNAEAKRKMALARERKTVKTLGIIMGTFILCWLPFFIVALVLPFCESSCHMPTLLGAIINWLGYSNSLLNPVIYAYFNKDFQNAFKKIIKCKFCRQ
# Procedure: Tested and reference compounds were dissolved in dimethyl sulfoxide (DMSO) at a concentration of 10 mM. Serial dilutions were prepared in 96-well microplate in assay buffer, and 8 to 10 concentrations were tested. […] Thawed cells were resuspended in stimulation buffer (HBSS, 5 mM HEPES, […], and 0.1% BSA at pH 7.4) at 2 × 10^5 cells/mL. The 10 µL of cell suspension was added to tested compounds with 10 µM forskolin. Samples were loaded onto a white opaque half area 96-well microplate. […] The agonist and antagonist were added simultaneously. Cell stimulation was performed for 40 min at room temperature. After incubation, cAMP measurements were performed with homogeneous TR-FRET immunoassay using the LANCE Ultra cAMP kit (PerkinElmer, Waltham, MA, USA). Ten microliters of EucAMP Tracer Working Solution and 10 µl of ULight-anti-cAMP Tracer Working Solution were added, mixed, and incubated for 1 h. The TR-FRET signal was read on an EnVision microplate reader (PerkinElmer, USA). IC50 and EC50 were determined by nonlinear regression analysis using GraphPad Prism 6.0 software.
# dopamine D2 receptor = target: T3, dopamine D2 receptor (Homo sapiens, UniProt P14416); assay: Aequorin-based calcium mobilization functional assay, CHO-K1 cells; type: cell-based
# T3 construct: expressed in transfected cells; host or cells: recombinant CHO-K1 co-expressing mitochondrially targeted aequorin and Gαqi/5
# T3 sequence (P14416 whole entry): as the sequence (P14416 whole entry) above
# Procedure: Therefore, using in vitro functional assay, we next investigated the type of the interaction with this receptor.
# Tested and reference compounds were dissolved in dimethyl sulfoxide (DMSO) at a concentration of 1 mM. Serial dilutions were prepared in 96-well microplate in assay buffer, and 8-to-10 concentrations were tested. A cellular aequorin-based functional assay was performed with recombinant CHO-K1 cells expressing mitochondrially targeted aequorin, human GPCR, and the promiscuous G protein Gαqi/5 for D2 receptor. After thawing, cells were transferred to assay buffer (DMEM/HAM’s F12 with 0.1% protease-free BSA) and centrifuged. The cell pellet was resuspended in assay buffer, and coelenterazine h was added at final concentrations of 5 µM. […] After 1 h of incubation, 50 µL of the cell’s suspension was dispensed using automatic injectors built into the radiometric and luminescence plate counter MicroBeta2 LumiJET (PerkinElmer, USA) into white opaque 96-well microplates preloaded with test compounds. Immediate light emission generated following calcium mobilization was recorded for 30 s. In antagonist mode, after 30 min of incubation, the reference agonist was added to the above assay mix and light emission was recorded again.
# [2] = system: corticosterone-treated mice; assay: Locomotor activity in corticosterone-treated mice; type: in vivo, mouse; conditions: 4 min
# Procedure: (§2) The locomotor activity of mice was measured as previously described. We used photoresistor actometers (Ugo Basile, Italy) connected to a counter for the recording of light-beam interruptions. Mice were placed individually in cages for 30 min, and the number of crossings of the light beams was recorded as the locomotor activity for 4 min.
# Mice were injected with corticosterone (sc, 20 mg/kg) at random times during the light phase for 21 days. The dose and route of administration of corticosterone were based on our previous study. Control mice received saline containing 0.1% dimethyl sulfoxide (DMSO) and 0.1% Tween (sc). For the next 21 days, 30 min before the corticosterone injection, mice were injected with saline, HBK-10 (0.625 or 1.25 mg/kg), or fluoxetine (15 mg/kg) (ip). Twenty-four hours after the last injection, animals were tested in the forced swim test and locomotor activity test (Figure 8).
# [3] = Spontaneous locomotor activity in mice; type: in vivo, mouse; conditions: mouse, in vivo; ip, mice; read-out: ED50 (locomotor activity, sedative effect)
# Procedure: as §2
# mice = assay: Spontaneous locomotor activity in mice; type: in vivo, mouse; conditions: for Number of Crossings ± SEM: 4 min
# Procedure: as §2
# [4] = CHO-K1, read-out: Emax %, agonist mode
# [5] = read-out: pIC50 ± SEM, antagonist mode (converted)
smiles,measurement,setting,value
"CCC(CN1CCN(c2ccccc2OC)CC1)NCCCOc1c(C)cccc1C.Cl.Cl (stereo not shown) [HBK-10, N-(3-(2,6-dimethylphenoxy)propyl)-1-(4-(2-methoxyphenyl)piperazin-1-yl)butan-2-amine dihydrochloride]",Ki,human 5-HT6 receptor,3.72 µM
same,Ki,dopaminergic D2 receptor,50.1 nM
same,"Kb, fold lower compared with NAN-190","[1]; 5-HT1A, antagonist mode",10 fold
same,Kb,"[1]; 5-HT1A, antagonist mode, Cheng–Prusoff equation",64 nM
same,Emax,[1]; [4],2%
same,Emax,"[1]; CHO-K1, read-out: Emax %, antagonist mode",0%
same,IC50,[1]; [5],191 nM
same,Emax,dopamine D2 receptor; [4],9%
same,"Kb, fold lower than Kb of chlorpromazine","dopamine D2 receptor; D2, antagonist mode",3.1 fold
same,Kb,"dopamine D2 receptor; D2, antagonist mode, Cheng–Prusoff equation",2.76 nM
same,IC50,dopamine D2 receptor; [5],9.33 nM
same,Number of Crossings ± SEM,[2]; 0.625 mg/kg ip chronic,431.1 ± 47.92
same,Number of Crossings ± SEM,[2]; 1.25 mg/kg ip chronic,453.9 ± 41.27
same,ED50 at 4 min,[3],32.3 mg/kg
same,Number of Crossings ± SEM,mice; 10 mg/kg ip,355.1 ± 49.92
same,Number of Crossings ± SEM,mice; 20 mg/kg ip,329.8 ± 34.52
same,Number of Crossings ± SEM,mice; 40 mg/kg ip,155.4 ± 29.59
same,Number of Crossings ± SEM,mice; 60 mg/kg ip,22.17 ± 2.03
same,"ED50 for sedative effect, fold higher than the lowest antidepressant-like dose","mice; mouse, in vivo",approximately 26 fold
